Laboratory results taken from patent US12258327B2, “5-membered heteroaryl-containing aminopyridine compounds as EGFR inhibitors” (YUHAN CORPORATION, priority 2021, dated 2025).
Like-named read-outs stand apart in the source and are kept apart here.

Experiments:
[1] = biological target: EGFR del19/T790M/C797S (Homo sapiens, UniProt P00533, C797S/DEL746-750/T790M); assay: Biochemical EGFR kinase assay (Lance Ultra TR-FRET), triple mutant del19/T790M/C797S
Method in brief: (§1)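 Kinase activity is measured by TR-FRET phosphopeptide detection. Compounds span 0.003 μM to 10 μM; the 1 h reaction at room temperature is quenched with EDTA, then labelled antibody (2 nM) is incubated 60 min before reading.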

[2] = biological target: EGFR L858R/T790M/C797S (Homo sapiens, UniProt P00533, C797S/L858R/T790M); assay: Biochemical EGFR kinase assay (Lance Ultra TR-FRET), triple mutant L858R/T790M/C797S
Method in brief: as §1

[3] = biological target: EGFR del19/C797S (Homo sapiens, UniProt P00533, C797S/DEL746-750); assay: Biochemical EGFR kinase assay (Lance Ultra TR-FRET), double mutant del19/C797S
Method in brief: as §1

[4] = biological target: EGFR L858R/C797S (Homo sapiens, UniProt P00533, C797S/L858R); assay: Biochemical EGFR kinase assay (Lance Ultra TR-FRET), double mutant L858R/C797S
Method in brief: as §1

[5] = biological target: EGFR wildtype (WT) (Homo sapiens, UniProt P00533); assay: Biochemical EGFR kinase assay (Lance Ultra TR-FRET), wildtype
Method in brief: as §1

[6] = IC50 del19/T790M/C797S (nM) 100 μM ATP, 100 μM ATP
[7] = Km ATP, read-out: IC50 del19/T790M/C797S (nM) Km ATP
[8] = IC50 L858R/T790M/C797S (nM) 100 μM ATP, 100 μM ATP
[9] = Km ATP, read-out: IC50 L858R/T790M/C797S (nM) Km ATP
[10] = IC50 del19/C797S (nM) 100 μM ATP, 100 μM ATP
[11] = Km ATP, read-out: IC50 del19/C797S (nM) Km ATP
[12] = IC50 L858R/C797S (nM) 100 μM ATP, 100 μM ATP
[13] = Km ATP, read-out: IC50 L858R/C797S (nM) Km ATP
[14] = IC50 WT (nM) 100 μM ATP, 100 μM ATP
[15] = Km ATP, read-out: IC50 WT (nM) Km ATP

Sequence of EGFR wildtype (WT) (P00533 25-1210): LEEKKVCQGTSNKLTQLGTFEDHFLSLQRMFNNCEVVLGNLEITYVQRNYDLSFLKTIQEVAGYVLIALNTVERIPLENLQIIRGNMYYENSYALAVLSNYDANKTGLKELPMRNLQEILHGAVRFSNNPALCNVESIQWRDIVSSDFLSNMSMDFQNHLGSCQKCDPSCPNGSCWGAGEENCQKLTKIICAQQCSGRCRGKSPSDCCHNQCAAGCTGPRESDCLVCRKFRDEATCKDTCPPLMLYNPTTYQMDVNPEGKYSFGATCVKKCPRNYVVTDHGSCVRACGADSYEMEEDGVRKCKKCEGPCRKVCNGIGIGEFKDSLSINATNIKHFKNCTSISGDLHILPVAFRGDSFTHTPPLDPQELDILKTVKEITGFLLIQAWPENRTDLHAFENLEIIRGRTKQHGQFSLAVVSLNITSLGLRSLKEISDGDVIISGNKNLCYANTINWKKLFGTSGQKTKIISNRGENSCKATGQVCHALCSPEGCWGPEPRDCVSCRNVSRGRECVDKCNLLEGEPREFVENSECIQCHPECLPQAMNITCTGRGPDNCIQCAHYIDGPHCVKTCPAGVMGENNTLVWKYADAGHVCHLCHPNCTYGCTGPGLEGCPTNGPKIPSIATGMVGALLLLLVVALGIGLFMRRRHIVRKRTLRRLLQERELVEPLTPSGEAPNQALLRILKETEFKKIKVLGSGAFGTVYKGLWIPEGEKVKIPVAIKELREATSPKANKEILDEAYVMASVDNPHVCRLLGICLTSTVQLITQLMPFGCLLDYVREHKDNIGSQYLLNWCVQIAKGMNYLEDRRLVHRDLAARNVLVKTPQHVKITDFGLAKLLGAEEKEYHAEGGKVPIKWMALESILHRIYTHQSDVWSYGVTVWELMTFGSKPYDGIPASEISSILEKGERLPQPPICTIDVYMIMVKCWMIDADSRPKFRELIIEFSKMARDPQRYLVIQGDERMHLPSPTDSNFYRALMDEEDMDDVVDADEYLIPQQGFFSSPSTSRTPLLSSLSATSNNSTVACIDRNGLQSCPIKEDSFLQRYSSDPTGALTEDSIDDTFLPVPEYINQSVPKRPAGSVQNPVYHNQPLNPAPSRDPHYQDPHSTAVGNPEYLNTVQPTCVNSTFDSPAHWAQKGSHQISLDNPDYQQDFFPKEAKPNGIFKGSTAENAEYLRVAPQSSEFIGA
Sequence of EGFR del19/T790M/C797S (P00533 with tags, fused parts or gaps DEL746-750/T790M/C797S): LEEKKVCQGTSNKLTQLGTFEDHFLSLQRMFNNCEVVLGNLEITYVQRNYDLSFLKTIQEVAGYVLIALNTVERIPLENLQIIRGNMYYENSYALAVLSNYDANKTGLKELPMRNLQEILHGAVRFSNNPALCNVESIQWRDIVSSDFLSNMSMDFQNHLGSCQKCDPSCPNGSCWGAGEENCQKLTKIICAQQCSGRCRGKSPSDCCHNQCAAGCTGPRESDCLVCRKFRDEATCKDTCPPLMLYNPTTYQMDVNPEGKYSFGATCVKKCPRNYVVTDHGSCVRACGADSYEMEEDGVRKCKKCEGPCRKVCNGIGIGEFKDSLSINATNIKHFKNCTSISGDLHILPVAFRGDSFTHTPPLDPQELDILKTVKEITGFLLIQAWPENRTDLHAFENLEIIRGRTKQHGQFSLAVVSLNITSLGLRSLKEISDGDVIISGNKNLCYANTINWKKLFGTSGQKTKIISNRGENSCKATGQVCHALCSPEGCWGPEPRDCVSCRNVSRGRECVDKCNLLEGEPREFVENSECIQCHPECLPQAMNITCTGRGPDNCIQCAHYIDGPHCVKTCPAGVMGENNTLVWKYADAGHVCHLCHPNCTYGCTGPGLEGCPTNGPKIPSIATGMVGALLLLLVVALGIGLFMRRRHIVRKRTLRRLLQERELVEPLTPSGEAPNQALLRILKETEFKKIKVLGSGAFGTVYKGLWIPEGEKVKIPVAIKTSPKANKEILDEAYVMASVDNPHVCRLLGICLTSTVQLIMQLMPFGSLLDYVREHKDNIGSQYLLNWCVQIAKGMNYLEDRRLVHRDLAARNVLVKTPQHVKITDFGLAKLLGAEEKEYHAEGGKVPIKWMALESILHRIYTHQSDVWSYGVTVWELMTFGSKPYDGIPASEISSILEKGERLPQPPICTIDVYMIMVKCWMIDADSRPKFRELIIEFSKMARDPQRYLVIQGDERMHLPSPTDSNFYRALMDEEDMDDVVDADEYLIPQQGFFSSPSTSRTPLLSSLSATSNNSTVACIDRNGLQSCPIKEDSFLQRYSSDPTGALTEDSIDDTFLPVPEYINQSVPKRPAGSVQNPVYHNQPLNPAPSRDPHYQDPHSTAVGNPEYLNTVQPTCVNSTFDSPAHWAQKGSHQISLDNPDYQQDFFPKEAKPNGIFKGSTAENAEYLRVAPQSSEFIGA
Sequence of EGFR L858R/T790M/C797S (P00533 25-1210 T790M/C797S/L858R): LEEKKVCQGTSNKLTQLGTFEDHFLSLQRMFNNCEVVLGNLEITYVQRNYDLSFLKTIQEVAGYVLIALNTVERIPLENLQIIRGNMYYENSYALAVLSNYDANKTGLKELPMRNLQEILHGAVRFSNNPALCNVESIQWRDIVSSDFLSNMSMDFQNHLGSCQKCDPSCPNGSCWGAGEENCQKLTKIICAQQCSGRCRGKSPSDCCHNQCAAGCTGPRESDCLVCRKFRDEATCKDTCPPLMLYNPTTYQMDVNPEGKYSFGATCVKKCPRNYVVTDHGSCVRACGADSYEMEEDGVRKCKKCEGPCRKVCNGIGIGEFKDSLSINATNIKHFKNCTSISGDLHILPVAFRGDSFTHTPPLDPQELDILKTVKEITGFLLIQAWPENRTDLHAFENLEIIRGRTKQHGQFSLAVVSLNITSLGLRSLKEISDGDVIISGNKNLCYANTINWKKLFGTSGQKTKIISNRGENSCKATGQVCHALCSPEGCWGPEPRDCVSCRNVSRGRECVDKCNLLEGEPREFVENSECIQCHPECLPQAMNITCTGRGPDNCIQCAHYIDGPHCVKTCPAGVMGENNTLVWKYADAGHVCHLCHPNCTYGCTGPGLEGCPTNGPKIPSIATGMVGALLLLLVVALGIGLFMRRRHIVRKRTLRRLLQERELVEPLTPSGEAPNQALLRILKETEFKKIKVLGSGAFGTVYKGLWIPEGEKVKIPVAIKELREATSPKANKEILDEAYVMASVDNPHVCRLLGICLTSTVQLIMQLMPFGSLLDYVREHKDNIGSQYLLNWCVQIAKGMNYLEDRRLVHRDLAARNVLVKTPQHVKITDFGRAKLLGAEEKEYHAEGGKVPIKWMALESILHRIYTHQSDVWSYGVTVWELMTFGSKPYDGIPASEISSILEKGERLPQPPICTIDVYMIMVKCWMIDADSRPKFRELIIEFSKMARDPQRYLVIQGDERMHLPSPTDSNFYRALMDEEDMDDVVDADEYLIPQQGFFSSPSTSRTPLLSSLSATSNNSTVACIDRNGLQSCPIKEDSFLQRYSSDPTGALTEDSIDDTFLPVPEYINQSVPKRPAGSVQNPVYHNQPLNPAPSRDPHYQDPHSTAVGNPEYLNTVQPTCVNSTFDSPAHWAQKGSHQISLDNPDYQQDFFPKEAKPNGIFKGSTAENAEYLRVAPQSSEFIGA
Sequence of EGFR del19/C797S (P00533 with tags, fused parts or gaps DEL746-750/C797S): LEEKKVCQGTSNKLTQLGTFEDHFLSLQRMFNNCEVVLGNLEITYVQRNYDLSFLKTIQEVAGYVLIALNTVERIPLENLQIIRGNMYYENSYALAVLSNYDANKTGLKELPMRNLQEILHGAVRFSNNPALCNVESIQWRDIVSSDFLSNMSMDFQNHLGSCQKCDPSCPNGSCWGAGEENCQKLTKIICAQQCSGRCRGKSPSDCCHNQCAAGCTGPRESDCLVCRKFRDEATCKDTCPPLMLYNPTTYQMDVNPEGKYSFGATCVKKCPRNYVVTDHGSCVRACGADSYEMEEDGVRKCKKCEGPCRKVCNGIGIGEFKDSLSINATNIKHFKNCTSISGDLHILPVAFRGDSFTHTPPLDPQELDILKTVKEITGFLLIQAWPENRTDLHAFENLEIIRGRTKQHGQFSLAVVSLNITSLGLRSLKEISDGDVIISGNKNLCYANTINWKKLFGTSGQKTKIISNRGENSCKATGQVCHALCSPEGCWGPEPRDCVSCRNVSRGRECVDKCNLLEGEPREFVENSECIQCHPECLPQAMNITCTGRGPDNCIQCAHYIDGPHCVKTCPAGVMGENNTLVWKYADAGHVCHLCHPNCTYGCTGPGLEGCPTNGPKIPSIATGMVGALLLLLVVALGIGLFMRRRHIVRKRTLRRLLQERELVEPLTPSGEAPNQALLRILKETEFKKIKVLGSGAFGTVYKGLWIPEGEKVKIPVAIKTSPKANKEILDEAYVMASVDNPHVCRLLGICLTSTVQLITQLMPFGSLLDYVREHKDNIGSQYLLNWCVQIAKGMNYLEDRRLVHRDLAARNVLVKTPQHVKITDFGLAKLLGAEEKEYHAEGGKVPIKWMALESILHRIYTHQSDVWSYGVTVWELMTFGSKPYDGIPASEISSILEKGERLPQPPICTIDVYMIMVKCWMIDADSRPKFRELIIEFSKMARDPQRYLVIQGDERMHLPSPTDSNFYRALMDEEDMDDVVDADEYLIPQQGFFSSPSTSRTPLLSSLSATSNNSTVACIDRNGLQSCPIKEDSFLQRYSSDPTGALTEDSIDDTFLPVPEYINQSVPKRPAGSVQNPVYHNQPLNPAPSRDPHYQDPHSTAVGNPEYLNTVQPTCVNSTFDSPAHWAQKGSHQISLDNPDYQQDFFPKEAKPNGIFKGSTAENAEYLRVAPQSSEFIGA

SMILES | IC50 [1, 6] | IC50 [1, 7] | IC50 [2, 8] | IC50 [2, 9] | IC50 [3, 10] | IC50 [3, 11] | IC50 [4, 12] | IC50 [4, 13] | IC50 [5, 14] | IC50 [5, 15] | IC50 ([1]; read-out: IC50 del19/T790M/C797S (nM) 100 μM ATP, 100 μM ATP) | IC50 ([2]; read-out: IC50 L858R/T790M/C797S (nM) 100 μM ATP, 100 μM ATP) | IC50 ([3]; read-out: IC50 del19/C797S (nM) 100 μM ATP, 100 μM ATP) | IC50 ([4]; read-out: IC50 L858R/C797S (nM) 100 μM ATP, 100 μM ATP) | IC50 ([5]; read-out: IC50 WT (nM) 100 μM ATP, 100 μM ATP)
O=S(=O)(C1CC1)n1cc(-c2nccc(Nc3cc(N[C@H]4CC[C@@H](NCC(F)F)CC4)c(-c4ccn(C(F)F)n4)cn3)n2)cn1 [Example 23, N^2-(2-(1-(Cyclopropylsulfonyl)-1H-pyrazol-4-yl)pyrimidin-4-yl)-N^4-((1s,4s)-4-((2,2-difluoroethyl)amino)cyclohexyl)-5-(1-(difluoromethyl)-1H-pyrazol-3-yl)pyridine-2,4-diamine] | 1.3 nM | 0.7 nM | 1 nM | 0.4 nM | 0.9 nM | 0.8 nM | 7.4 nM | 1.8 nM | > 10000 nM | 6.9 nM |  |  |  |  | 
Cn1nc(-c2cnc(Nc3ccnc(-c4cnn(S(=O)(=O)C5CC5)c4)n3)cc2NC[C@H]2CC[C@@H](O)C2)cc1C(F)(F)F [Example 261, (1R,3S)-3-(((2-((2-(1-(Cyclopropylsulfonyl)-1H-pyrazol-4-yl)pyrimidin-4-yl)amino)-5-(1-methyl-5-(trifluoromethyl)-1H-pyrazol-3-yl)pyridin-4-yl)amino)methyl)cyclopentan-1-ol] | 1.2 nM | 0.1 nM | 1.4 nM | 0.8 nM | 77.9 nM | 5.8 nM | 22.7 nM | 5.6 nM | > 10000 nM | 6.4 nM |  |  |  |  | 
O=S(=O)(C1CC1)n1cc(-c2nccc(Nc3cc(N[C@H]4CC[C@@H](O)CC4)c(-c4cnn(C5CC5)c4)cn3)n2)cn1 [Example 78, (1s,4s)-4-((5-(1-Cyclopropyl-1H-pyrazol-4-yl)-2-((2-(1-(cyclopropylsulfonyl)-1H-pyrazol-4-yl)pyrimidin-4-yl)amino)pyridin-4-yl)amino)cyclohexan-1-ol] | 4.8 nM |  | 5.4 nM |  | 38.5 nM |  | 161 nM |  | > 10000 nM |  |  |  |  |  | 
O=S(=O)(C1CC1)n1cc(-c2nccc(Nc3cc(NC4CCCN(CCF)C4)c(-c4ccn(C(F)F)n4)cn3)n2)cn1 (stereo not drawn) [Example 218, N^2-(2-(1-(Cyclopropylsulfonyl)-1H-pyrazol-4-yl)pyrimidin-4-yl)-5-(1-(difluoromethyl)-1H-pyrazol-3-yl)-N^4-(1-(2-fluoroethyl)piperidin-3-yl)pyridine-2,4-diamine] |  | 0.5 nM |  | 0.8 nM |  | 43.9 nM |  | 30.7 nM |  | 233 nM |  |  |  |  | 
CNC[C@H]1CC[C@H](CNc2cc(Nc3ccnc(-c4cnn(S(=O)(=O)C5CC5)c4)n3)ncc2-c2ccn(C(F)F)n2)CC1 [Example 192, N^2-(2-(1-(Cyclopropylsulfonyl)-1H-pyrazol-4-yl)pyrimidin-4-yl)-5-(1-(difluoromethyl)-1H-pyrazol-3-yl)-N^4-(((1r,4r)-4-((methylamino)methyl)cyclohexyl)methyl)pyridine-2,4-diamine] | 0.4 nM | 0.2 nM | 0.2 nM | 0.1 nM | 0.7 nM | 0.3 nM | 3.7 nM | 0.4 nM | 384 nM | 1.1 nM |  |  |  |  | 
O=S(=O)(C1CC1)n1cc(-c2nccc(Nc3cc(N[C@H]4CC[C@@H](CC(F)F)CC4)c(-c4ccn(C(F)F)n4)cn3)n2)cn1 [Example 185, N^2-(2-(1-(Cyclopropylsulfonyl)-1H-pyrazol-4-yl)pyrimidin-4-yl)-N^4-((1s,4s)-4-(2,2-difluoroethyl)cyclohexyl)-5-(1-(difluoromethyl)-1H-pyrazol-3-yl)pyridine-2,4-diamine] |  | 11 nM |  | 3.8 nM |  | 51.5 nM |  | 59.5 nM |  | 87.1 nM |  |  |  |  | 
CS(=O)(=O)n1cc(-c2nccc(Nc3cc(N[C@H]4CC[C@@](C)(O)CC4)c(-c4ccn(C(F)F)n4)cn3)n2)cn1 [Example 112, (1s,4s)-4-((5-(1-(Difluoromethyl)-1H-pyrazol-3-yl)-2-((2-(1-(methylsulfonyl)-1H-pyrazol-4-yl)pyrimidin-4-yl)amino)pyridin-4-yl)amino)-1-methylcyclohexan-1-ol] |  | 1.2 nM |  | 0.5 nM |  | 34.5 nM |  | 34.9 nM |  | 220 nM | 2.1 nM | 4.9 nM | 75.4 nM | 60.7 nM | > 10000 nM
Cn1nc(-c2cnc(Nc3ccnc(-c4cnn(S(=O)(=O)C5CC5)c4)n3)cc2N[C@H]2CC[C@@H](CN3CCC3)CC2)cc1C(F)(F)F [Example 264, N^4-((1s,4s)-4-(Azetidin-1-ylmethyl)cyclohexyl)-N^2-(2-(1-(cyclopropylsulfonyl)-1H-pyrazol-4-yl)pyrimidin-4-yl)-5-(1-methyl-5-(trifluoromethyl)-1H-pyrazol-3-yl)pyridine-2,4-diamine] | 1.4 nM | 1.7 nM | 0.6 nM | 0.4 nM | 0.9 nM | 0.8 nM | 2.2 nM | 0.4 nM | 244 nM |  |  |  |  |  | 
CN(C)CC1CCC(Nc2cc(Nc3ccnc(-c4cnn(S(=O)(=O)C5CC5)c4)n3)ncc2-c2ccn(C3COC3)n2)CC1 (stereo not drawn) [Example 284, N^2-(2-(1-(Cyclopropylsulfonyl)-1H-pyrazol-4-yl)pyrimidin-4-yl)-N^4-((1s,4s)-4-((dimethylamino)methyl)cyclohexyl)-5-(1-(oxetan-3-yl)-1H-pyrazol-3-yl)pyridine-2,4-diamine] | 0.1 nM | 0.1 nM | 0.1 nM | 0.1 nM | 0.4 nM | 0.1 nM | 0.9 nM | 0.1 nM | 387 nM | 0.8 nM |  |  |  |  | 
O=S(=O)(C1CC1)n1cc(-c2nccc(Nc3cc(N[C@H]4CC[C@@H](NCCF)CC4)c(-c4cc5n(n4)CCCC5)cn3)n2)cn1 [Example 62, N^2-(2-(1-(Cyclopropylsulfonyl)-1H-pyrazol-4-yl)pyrimidin-4-yl)-N^4-((1s,4s)-4-((2-fluoroethyl)amino)cyclohexyl)-5-(4,5,6,7-tetrahydropyrazolo[1,5-a]pyridin-2-yl)pyridine-2,4-diamine] | 0.3 nM | 0.2 nM | 0.2 nM | 0.1 nM | 0.5 nM | 0.2 nM | 1.9 nM | 0.2 nM | 617 nM | 1.1 nM |  |  |  |  | 
O=S(=O)(C1CC1)n1cc(-c2nccc(Nc3cc(NC4CCC(CCO)CC4)c(-c4ccn(C(F)F)n4)cn3)n2)cn1 (stereo not drawn) [Example 133, 2-((1r,4r)-4-((2-((2-(1-(Cyclopropylsulfonyl)-1H-pyrazol-4-yl)pyrimidin-4-yl)amino)-5-(1-(difluoromethyl)-1H-pyrazol-3-yl)pyridin-4-yl)amino)cyclohexyl)ethan-1-ol] | 0.5 nM | 0.3 nM | 3.2 nM | 0.1 nM | 1.4 nM | 0.3 nM | 99.3 nM | 1 nM | > 10000 nM | 92.1 nM |  |  |  |  | 
C=CCCS(=O)(=O)n1cc(-c2nccc(Nc3cc(N[C@H]4CC[C@@](C)(O)CC4)c(-c4ccn(C(F)F)n4)cn3)n2)cn1 [Example 117, (1s,4s)-4-((2-((2-(1-(But-3-en-1-ylsulfonyl)-1H-pyrazol-4-yl)pyrimidin-4-yl)amino)-5-(1-(difluoromethyl)-1H-pyrazol-3-yl)pyridin-4-yl)amino)-1-methylcyclohexan-1-ol] |  | 0.5 nM |  | 0.5 nM |  | 0.8 nM |  | 0.2 nM |  | 1.6 nM |  |  |  |  | 
